In patent US7868005B2, “Pyrazinyl substituted piperazine-piperidines with CXCR3 antagonist activity” (Schering Corporation, priority 2005, dated 2011):

biological target: T1, human CXCR3 (N-delta 4) (Homo sapiens, UniProt P49682); assay: Human CXCR3 (N-delta 4) Scintillation Proximity Assay (SPA), [125I] IP-10 binding to Ba/F3-hCXCR3 membranes; settings: IC50 rating, Table 1; read-out: IC50
T1 construct: CD8 leader (N); Flag; expressed in transfected cells; membranes prepared
T1 sequence (P49682 5-368 limits assumed): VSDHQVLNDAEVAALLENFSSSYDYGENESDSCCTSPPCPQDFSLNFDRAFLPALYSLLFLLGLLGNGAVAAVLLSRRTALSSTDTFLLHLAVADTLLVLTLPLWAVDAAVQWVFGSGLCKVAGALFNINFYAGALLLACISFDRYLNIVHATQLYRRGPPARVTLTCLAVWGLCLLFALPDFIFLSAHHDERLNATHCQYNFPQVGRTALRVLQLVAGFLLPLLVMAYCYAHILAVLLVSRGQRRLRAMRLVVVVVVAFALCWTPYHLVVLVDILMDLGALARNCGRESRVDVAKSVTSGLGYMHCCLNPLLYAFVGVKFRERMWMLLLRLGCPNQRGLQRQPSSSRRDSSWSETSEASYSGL
Excerpt: The inventive compounds can readily be evaluated to determine activity at the CXCR3 receptors by known methods, such as, for example, development of a human CXCR3 (N-delta 4) Binding Assay.
Cloning and Expression of Human CXCR3 (N-delta 4):
The DNA encoding human CXCR3 was cloned by PCR using human genomic DNA (Promega, Madison, Wis.) as a template. The PCR primers were designed based on the published sequence of human orphan receptor GPR9 (1) with incorporated restriction sites, a Kozak consensus sequence, CD8 leader and Flag tag. The PCR product was subcloned into the mammalian expression vector pME18Sneo, a derivative of the SR-alpha expression vector (designated as pME18Sneo-hCXCR3 (N-delta 4).
IL-3-dependent mouse pro-B cells Ba/F3 were transfected by electroporation in 0.4 ml Dulbecco's PBS containing 4×10^6 cells with 20 μg of pME18Sneo-hCXCR3 (N-delta 4) plasmid DNA. Cells were pulsed at 400 Volts, 100 OHMs, 960 μFd. The transfected cells were under selection with 1 mg/ml G418 (Life Technologies, Gaithersburg, Md.). G418-resistant Ba/F3 clones were screened for CXCR3 expression by specific binding of [^125I] IP-10 (NEN Life Science Products, Boston, Mass.).
Preparation of Ba/F3-hCXCR3 (N-delta 4) Membranes:
Ba/F3 cells expressing human CXCR3 (N-delta 4) were pelleted and resuspended in the lysis buffer containing 10 mM HEPES, pH 7.5 and Complete® protease inhibitors (1 tablet per 100 ml) (Boehringer Mannheim, Indianapolis, Ind.) at a cell density of 20×10^6 cells per ml. After 5 minute incubation on ice, cells were transferred to 4639 cell disruption bomb (Parr Instrument, Moline, Ill.) and applied with 1,500 psi of nitrogen for 30 minutes on ice. Large cellular debris was removed by centrifugation at 1,000×g. Cell membrane in the supernatant was sedimented at 100,000×g. The membrane was resuspended in the lysis buffer supplemented with 10% sucrose and stored at −80° C. Total protein concentration of the membrane was determined by BCA method from Pierce (Rockford, Ill.).
Human CXCR3 (N-delta 4) Scintillation Proximity Assay (SPA):
For each assay point, 2 μg of membrane was preincubated for 1 hr with 300 μg wheat germ agglutinin (WGA) coated SPA beads (Amersham, Arlington Heights, Ill.) in the binding buffer (50 mM HEPES, 1 mM CaCl2, 5 mM MgCl2, 125 mM NaCl, 0.002% NaN3, 1.0% BSA) at room temperature. The beads were spun down, washed once, resuspended in the binding buffer and transferred to a 96-well Isoplate (Wallac, Gaithersburg, Md.). 25 pM of [^125I] IP-10 with tested compounds in a series of titration were added to start the reaction. After 3 hr reaction at room temperature, the amount of [^125I] IP-10 bound to the SPA beads was determined with a Wallac 1450 Microbeta counter.
The Ki ratings for the various compounds of the present invention are given in the afore-mentioned Table 1. From these ratings and value ranges, it would be apparent to the skilled artisan that the compounds of the invention have excellent utility as CXCR3 receptor antagonists.

Compared with `CC[C@H]1CN(c2nc(N)c(C(=O)NC)nc2Cl)CCN1C1CCN(C(=O)c2ccc(Cl)c(F)c2)CC1` [compound 336], `CC[C@H]1CN(c2nc(N)c(C(=O)NC)nc2Cl)CCN1C1CCN(C(=O)c2ccc(Cl)cc2C)CC1` [compound 341] is higher in IC50: less than 25 nM for the first, 25 to 100 nM for the second.

First: CC[C@H]1CN(c2nc(N)c(C(=O)NCCO)nc2Cl)CCN1C1CCN(Cc2ccc(OC)c(F)c2)CC1 [compound 397]
Second: CC[C@H]1CN(c2nc(N)c(C(=O)NCCO)nc2Cl)CCN1C1CCN(Cc2ccc(OS(C)(=O)=O)c(F)c2)CC1 [compound 426]
The IC50 of the first is lower: less than 25 nM for the first, greater than 100 nM for the second. The first is the more potent here.

`CCNC(=O)c1cnc(N2CCN(C3CCN(C(=O)c4ccc(Cl)cc4)CC3)[C@@H](CC)C2)c(C)n1` [compound 451] and `CC[C@H]1CN(c2ncc(C(=O)NC)nc2C)CCN1C1CCN(C(=O)c2ccc(Cl)c(F)c2)CC1` [compound 454] cannot be ordered by IC50: less than 25 nM for the first, less than 25 nM for the second.

First: CC[C@H]1CN(c2nc(N)c(C(N)=O)nc2Cl)CCN1C1CCN(Cc2ccc(Cl)cc2CCNC=O)CC1 [compound 32]
Second: CCNC(=O)NCCc1cc(Cl)ccc1CN1CCC(N2CCN(c3nc(N)c(C(N)=O)nc3Cl)C[C@@H]2CC)CC1 [compound 47]
The IC50 of the first is lower: 25 to 100 nM for the first, greater than 100 nM for the second. The first is the more potent here.

First: CC[C@H]1CN(c2nc(N)c(C(=O)NCCNS(=O)(=O)CC)nc2Cl)CCN1C1CCN(Cc2ccc(C#N)cc2)CC1 [compound 242]
Second: CC[C@H]1CN(c2nc(N)c(C(=O)NCCCNS(=O)(=O)C(F)(F)F)nc2Cl)CCN1C1CCN(Cc2ccc(C#N)cc2)CC1 [compound 225]
The IC50 of the first is lower: 25 to 100 nM for the first, greater than 100 nM for the second.

Compared with `CCOC(=O)COc1cc(Cl)ccc1C(=O)N1CCC(N2CCN(c3nc(N)c(C(=O)NCCO)nc3Cl)C[C@@H]2CC)CC1` [compound 324], `CC[C@H]1CN(c2nc(N)c(C(=O)NCCO)nc2Cl)CCN1C1CCN(C(=O)c2ccc(Cl)cc2O)CC1` [compound 322] is lower in IC50: greater than 100 nM for the first, 25 to 100 nM for the second. The second is the more potent here.

`CC[C@H]1CN(c2nc(N)c(C(=O)NCCO)nc2Cl)CCN1C1CCN(Cc2ccc(OC(F)(F)F)cc2)CC1` [compound 112] and `CC[C@H]1CN(c2nc(N)c(C(=O)NCCO)nc2Cl)CCN1C1CCN(Cc2ccc(C#N)cc2)CC1` [compound 121] cannot be ordered by IC50: less than 25 nM for the first, less than 25 nM for the second.

First: CC[C@H]1CN(c2nc(N)c(C(=O)N3CC[C@H](NS(C)(=O)=O)C3)nc2Cl)CCN1C1CCN(Cc2ccc(Cl)cc2)CC1 [compound 209]
Second: CC[C@H]1CN(c2nc(N)c(C(N)=O)nc2Cl)CCN1C1CCN(Cc2ccc(Cl)cc2)CC1 [compound 1]
The IC50 of the first is higher: greater than 100 nM for the first, less than 25 nM for the second. The second is the more potent here.

`CNC(=O)c1cnc(N2C[C@H](C)N(C3CCN(Cc4ccc(Cl)cc4F)CC3)C[C@H]2C)cn1` [compound 287] and `CC[C@H]1CN(c2cnc(C(N)=O)cn2)CCN1C1CCN(Cc2ccc(Cl)cc2)CC1` [compound 425] cannot be ordered by IC50: greater than 100 nM for the first, greater than 100 nM for the second.

Going from `CC[C@H]1CN(c2nc(N)c(C(N)=O)nc2Cl)CCN1C1CCN(Cc2ccc(Cl)cc2CCn2ccnc2)CC1` [compound 52] to `CC[C@H]1CN(c2nc(N)c(C(N)=O)nc2Cl)CCN1C1CCN(Cc2ccc(Cl)cc2C(N)=O)CC1` [compound 8], the IC50 falls from greater than 100 nM to less than 25 nM.

Compared with `CC[C@H]1CN(c2nc(N)c(C(=O)NCCO)nc2Cl)CCN1C1CCN([C@@H](CO)c2ccc(C#N)cc2)CC1` [compound 116], `CC[C@H]1CN(c2nc(N)c(C(=O)NCCNC(N)=O)nc2Cl)CCN1C1CCN(C(CO)c2ccc(C#N)cc2)CC1` (stereo partly drawn) [compound 232] is higher in IC50: less than 25 nM for the first, 25 to 100 nM for the second. The first is the more potent here.

`CC[C@H]1CN(c2nc(N)c(C(=O)NCCO)nc2Cl)CCN1C1CCN(Cc2ccc(OCCSC)c(F)c2)CC1` [compound 415] and `CC[C@H]1CN(c2nc(N)c(C(=O)NCCO)nc2Cl)CCN1C1CCN(Cc2ccc(Cl)cc2C(=N)N)CC1` [compound 111] cannot be ordered by IC50: less than 25 nM for the first, less than 25 nM for the second.

First: CC[C@H]1CN(c2nc(N)c(C(=O)NCCO)nc2Cl)CCN1C1CCN(Cc2ccc(C#N)cc2OCC(=O)NCCO)CC1 [compound 191]
Second: CC[C@H]1CN(c2nc(N)c(C(=O)NC3CC3)nc2Cl)CCN1C1CCN(Cc2ccc(C#N)cc2OCCO)CC1 [compound 86]
The IC50 of the first is higher: 25 to 100 nM for the first, less than 25 nM for the second.

Going from `CC[C@H]1CN(c2nc(N)c(C(N)=O)nc2Cl)CCN1C1CCN(Cc2ccc(Cl)cc2C(NC(C)=O)C(N)=O)CC1` (stereo partly drawn) [compound 382] to `CC[C@H]1CN(c2nc(N)c(C(=O)NCCO)nc2Cl)CCN1C1CCN(Cc2ccc(Cl)cc2C(=O)O)CC1` [compound 164], the IC50 falls from greater than 100 nM to less than 25 nM. The second is the more potent here.

`CC[C@H]1CN(c2nc(N)c(C(=O)NCCO)nc2Cl)CCN1C1CCN(Cc2ccc(Cl)cc2C(=N)NC)CC1` [compound 151] and `CC[C@H]1CN(c2nc(N)c(C(=O)NCCO)nc2Cl)CCN1C1CCN(Cc2ccc(Cl)cc2C#N)CC1` [compound 136] cannot be ordered by IC50: less than 25 nM for the first, less than 25 nM for the second.

`CC[C@H]1CN(c2ncc(C(=O)NC3CC3)nc2C)CCN1C1CCN([C@@H](C(=O)OC)c2ccc(F)c(F)c2)CC1` [compound 486] and `CC[C@H]1CN(c2ncc(C(N)=O)nc2C)CCN1C1CCN(C(C(=O)OC)c2ccc(Cl)cc2)CC1` (stereo partly drawn) [compound 464] cannot be ordered by IC50: less than 25 nM for the first, less than 25 nM for the second.

`CC[C@H]1CN(c2ncc(C(N)=O)nc2Cl)CCN1C1CCN([C@@H](CO)c2ccc(Cl)cc2)CC1` [compound 457] and `CC[C@H]1CN(c2nc(N)c(C(=O)NCCNS(N)(=O)=O)nc2Cl)CCN1C1CCN([C@@H](CO)c2ccc(Cl)cc2)CC1` [compound 257] cannot be ordered by IC50: less than 25 nM for the first, less than 25 nM for the second.

Compared with `CC[C@H]1CN(c2ncc(C(N)=O)nc2OC)CCN1C1CCN(C(=O)c2ccc(Cl)cc2)CC1` [compound 379], `CC[C@H]1CN(c2ncc(C(N)=O)nc2Cl)CCN1C1CCN(C(=O)c2ccc(Cl)c(OCCS(C)(=O)=O)c2)CC1` [compound 409] is lower in IC50: greater than 100 nM for the first, less than 25 nM for the second. The second is the more potent here.

`CC[C@H]1CN(c2nc(N)c(C(=O)NCCNc3ncccn3)nc2Cl)CCN1C1CCN(Cc2ccc(Cl)cc2)CC1` [compound 229] and `CC[C@H]1CN(c2nc(N)c(C(=O)NCCNS(N)(=O)=O)nc2Cl)CCN1C1CCN(Cc2ccc(F)c(F)c2)CC1` [compound 265] cannot be ordered by IC50: less than 25 nM for the first, less than 25 nM for the second.

First: CC[C@H]1CN(c2nc(N)c(C(=O)NC(=N)NC)nc2Cl)CCN1C1CCN(C(=O)c2ccc(C#N)cc2)CC1 [compound 399]
Second: CC[C@H]1CN(c2nc(N)c(C(=O)NC)nc2Cl)CCN1C1CCN(C(=O)c2ccc(-c3cnco3)cc2)CC1 [compound 354]
The IC50 of the first is lower: less than 25 nM for the first, greater than 100 nM for the second.

`CC[C@H]1CN(c2nc(N)c(C(=O)OC)nc2Cl)CCN1C1CCN(Cc2ccc(Cl)cc2CCNC(=O)OC(C)(C)C)CC1` [compound 296] and `CC[C@H]1CN(c2nc(N)c(C(=O)NC3CC3)nc2Cl)CCN1C1CCN(Cc2ccc(Cl)cc2F)CC1` [compound 83] cannot be ordered by IC50: less than 25 nM for the first, less than 25 nM for the second.

Going from `CC[C@H]1CN(c2nc(N)c(C(=O)NCCO)nc2Cl)CCN1C1CCN(C(Cc2nn[nH]n2)c2ccc(Cl)cc2)CC1` (stereo partly drawn) [compound 204] to `CCC1CN(c2nc(N)c(C(=O)NC3CC3)nc2Cl)CCN1C1CCN(C(CCN)c2ccc(Cl)cc2)CC1` (stereo not drawn) [compound 91], the IC50 falls from greater than 100 nM to less than 25 nM.

First: CC[C@H]1CN(c2nc(N)c(C(=O)NC)nc2Cl)CCN1C1CCN(C(=O)c2ccc(Br)cc2F)CC1 [compound 342]
Second: CC[C@H]1CN(c2nc(N)c(C(=O)NCCNS(N)(=O)=O)nc2Cl)CCN1C1CCN(C(C(=O)OC)c2ccc(Cl)cc2)CC1 (stereo partly drawn) [compound 263]
The IC50 of the first is lower: 25 to 100 nM for the first, greater than 100 nM for the second.

For `CC[C@H]1CN(c2nc(N)c(C(=O)NC3CC3)nc2Cl)CCN1C1CCN(Cc2ccc(C#N)cc2OCCN2CCCC2=O)CC1` [compound 93], the IC50 was less than 25 nM.

same assay, conditions: human; read-out: human IC50

Compound `CC[C@H]1CN(c2ncc(C(=O)NC3CC3)nc2C)CCN1C1CCN([C@@H](CO)c2ccc(Cl)cc2)CC1` [Formula 12] has an IC50 of less than 1 nM.
